Experimental data reported in PubChem BioAssay AID308 (DTP/NCI, 2004).
“And” between values parts separate entries of the source, which are not always exact repeats. Equal entries are not always repeated. Toxic doses and inconclusive results are not listed.

Tested on: BDF1 mice, L1210 6-MP/6-TG resistant leukemia ip, survival T/C
Test: NCI In Vivo Anticancer Drug Screen. Data for tumor model L1210 Leukemia resistant to 6-MP and 6-Thioguanine; NSC 755, NSC 752 (intraperitoneal) in B6D2F1 (BDF1) mice
Settings: endpoint: mean survival time, higher = longer survival
Experimental: The antitumor activity of compounds was measured in mice bearing transplantable tumors. Survival or tumor size were measured and the results are expressed as the measurement made in the treated group (T) divided by the measurement made in the vehicle treated control group (C). The tumor model used in this assay is L1210 Leukemia resistant to 6-MP and 6-Thioguanine; NSC 755, NSC 752 (intraperitoneal) in B6D2F1 (BDF1) mice

[1] = dose: 62.0 mg/kg/injection, schedule: Q01DX Z (ip), vehicle: saline
[2] = dose: 125.0 mg/kg/injection, schedule: Q01DX Z (ip), vehicle: saline

**Q.** Which results are given for `CCn1cnc2c(=S)nc[nH]c21`?
**A.** T/C (dose: 50.0 mg/kg/injection, schedule: Q01DX Z (ip), vehicle: carboxymethylcellulose (CMC)): 91 % of control; T/C (dose: 75.0 mg/kg/injection, schedule: Q01DX Z (ip), vehicle: carboxymethylcellulose (CMC)): 94 % of control; T/C (dose: 100.0 mg/kg/injection, schedule: Q01DX Z (ip), vehicle: carboxymethylcellulose (CMC)): 92 % of control; T/C (dose: 150.0 mg/kg/injection, schedule: Q01DX Z (ip), vehicle: carboxymethylcellulose (CMC)): 87 % of control

**Q.** With `CCSc1ncc(Br)c(Sc2nc(N)nc3nc[nH]c23)n1` as the compound, how does the T/C (dose: 1.5 mg/kg/injection, schedule: Q01DX015 (ip), vehicle: carboxymethylcellulose (CMC)) read?
**A.** 112 % of control

**Q.** What about the T/C (dose: 3.0 mg/kg/injection, schedule: Q01DX015 (ip), vehicle: carboxymethylcellulose (CMC)) of the same compound?
**A.** 115 % of control

**Q.** What about the T/C (dose: 6.0 mg/kg/injection, schedule: Q01DX015 (ip), vehicle: carboxymethylcellulose (CMC)) of the same compound?
**A.** 100 % of control

**Q.** And the T/C (dose: 12.5 mg/kg/injection, schedule: Q01DX015 (ip), vehicle: carboxymethylcellulose (CMC))?
**A.** 100 % of control

**Q.** With `CCSc1nc(Cl)cc(Sc2nc(N)nc3nc[nH]c23)n1` as the compound, how does the T/C (dose: 8.0 mg/kg/injection, schedule: Q01DX Z (ip), vehicle: other) read?
**A.** 107 % of control

**Q.** What about the T/C (dose: 16.0 mg/kg/injection, schedule: Q01DX Z (ip), vehicle: other) of the same compound?
**A.** 90 % of control

**Q.** How did the T/C (dose: 73.0 mg/kg/injection, schedule: Q01DX Z (ip), vehicle: other) turn out when `Cc1c(O)ccc(=O)n1O` was run?
**A.** 108 % of control

**Q.** What about the T/C (dose: 165.0 mg/kg/injection, schedule: Q01DX Z (ip), vehicle: other) of the same compound?
**A.** 103 % of control

**Q.** Which T/C (dose: 1.87 mg/kg/injection, schedule: Q01DX Z (ip), vehicle: saline) does the source give for `CN(C)c1ccc(/C=C/c2ccnc3ccccc23)cc1` here?
**A.** 115 % of control

**Q.** And the T/C (dose: 3.75 mg/kg/injection, schedule: Q01DX Z (ip), vehicle: saline)?
**A.** 109 % of control

**Q.** And the T/C (dose: 7.5 mg/kg/injection, schedule: Q01DX Z (ip), vehicle: saline)?
**A.** 115 % of control

**Q.** What about the T/C (dose: 15.0 mg/kg/injection, schedule: Q01DX Z (ip), vehicle: saline) of the same compound?
**A.** 110 % of control

**Q.** And the T/C (dose: 25.0 mg/kg/injection, schedule: Q01DX Z (ip), vehicle: saline)?
**A.** 102 % of control

**Q.** What about the T/C (dose: 50.0 mg/kg/injection, schedule: Q01DX Z (ip), vehicle: saline) of the same compound?
**A.** 90 % of control

**Q.** `O=CN(O)CC(=O)O` was tested. Which T/C [1] did it give?
**A.** 100 % of control

**Q.** And the T/C [2]?
**A.** 112 % of control

**Q.** And the T/C (dose: 250.0 mg/kg/injection, schedule: Q01DX Z (ip), vehicle: saline)?
**A.** 107 % of control

**Q.** What about the T/C (dose: 500.0 mg/kg/injection, schedule: Q01DX Z (ip), vehicle: saline) of the same compound?
**A.** 105 % of control

**Q.** How did the T/C (dose: 1.0 mg/kg/injection, schedule: Q01DX Z (ip), vehicle: other) turn out when `CC(=O)OCC1OC(n2cnc3c(=S)nc(N)[nH]c32)C(OC(C)=O)C1OC(C)=O` (stereo unspecified) was run?
**A.** 89 % of control

**Q.** And the T/C (dose: 2.0 mg/kg/injection, schedule: Q01DX Z (ip), vehicle: other)?
**A.** 89 % of control

**Q.** What about the T/C (dose: 4.0 mg/kg/injection, schedule: Q01DX Z (ip), vehicle: other) of the same compound?
**A.** 101 % of control

**Q.** What about the T/C (dose: 6.0 mg/kg/injection, schedule: Q01DX Z (ip), vehicle: other) of the same compound?
**A.** 92 % of control

**Q.** What about the T/C (dose: 12.5 mg/kg/injection, schedule: Q01DX Z (ip), vehicle: other) of the same compound?
**A.** 98 % of control

**Q.** What about the T/C (dose: 25.0 mg/kg/injection, schedule: Q01DX Z (ip), vehicle: other) of the same compound?
**A.** 93 % of control

**Q.** `CCOC(=O)NP(=O)(N1CC1(C)C)N1CC1(C)C` (stereo unspecified) was tested. Which T/C (dose: 31.0 mg/kg/injection, schedule: Q01DX Z (ip), vehicle: saline) did it give?
**A.** 113 % of control

**Q.** What about the T/C [1] of the same compound?
**A.** 160 % of control

**Q.** What about the T/C (dose: 62.5 mg/kg/injection, schedule: Q01DX Z (ip), vehicle: saline) of the same compound?
**A.** 228 % of control

**Q.** What about the T/C (dose: 93.0 mg/kg/injection, schedule: Q01DX Z (ip), vehicle: saline) of the same compound?
**A.** 182 % of control

**Q.** What about the T/C [2] of the same compound?
**A.** 160 % of control and 207 % of control

**Q.** And the T/C (dose: 187.0 mg/kg/injection, schedule: Q01DX Z (ip), vehicle: saline)?
**A.** 207 % of control

**Q.** Which results are given for `CN(C)c1ccc(/C=C\c2ccnc3ccccc23)cc1`?
**A.** T/C (dose: 1.87 mg/kg/injection, schedule: Q01DX Z (ip), vehicle: carboxymethylcellulose (CMC)): 106 % of control; T/C (dose: 3.75 mg/kg/injection, schedule: Q01DX Z (ip), vehicle: carboxymethylcellulose (CMC)): 97 % of control; T/C (dose: 7.5 mg/kg/injection, schedule: Q01DX Z (ip), vehicle: carboxymethylcellulose (CMC)): 100 % of control; T/C (dose: 15.0 mg/kg/injection, schedule: Q01DX Z (ip), vehicle: carboxymethylcellulose (CMC)): 91 % of control

**Q.** `CC(C)Cn1cnc2c(=S)nc(N)[nH]c21` was tested. Which T/C (dose: 9.0 mg/kg/injection, schedule: Q01DX015 (ip), vehicle: other) did it give?
**A.** 107 % of control

**Q.** What about the T/C (dose: 14.0 mg/kg/injection, schedule: Q01DX015 (ip), vehicle: other) of the same compound?
**A.** 106 % of control

**Q.** And the T/C (dose: 21.0 mg/kg/injection, schedule: Q01DX015 (ip), vehicle: other)?
**A.** 102 % of control

**Q.** And the T/C (dose: 36.0 mg/kg/injection, schedule: Q01DX015 (ip), vehicle: other)?
**A.** 95 % of control

**Q.** Which results are given for `CN(Cc1cnc2nc(N)nc(N)c2n1)c1c(Cl)cc(C(=O)NC(CCC(=O)O)C(=O)O)cc1Cl` (stereo unspecified)?
**A.** T/C (dose: 0.31 mg/kg/injection, schedule: Q01DX015 (ip), vehicle: carboxymethylcellulose (CMC)): 154 % of control; T/C (dose: 0.62 mg/kg/injection, schedule: Q01DX015 (ip), vehicle: carboxymethylcellulose (CMC)): 238 % of control; T/C (dose: 1.25 mg/kg/injection, schedule: Q01DX015 (ip), vehicle: carboxymethylcellulose (CMC)): 307 % of control; T/C (dose: 2.5 mg/kg/injection, schedule: Q01DX015 (ip), vehicle: carboxymethylcellulose (CMC)): 175 % of control and 320 % of control; T/C (dose: 5.0 mg/kg/injection, schedule: Q01DX015 (ip), vehicle: carboxymethylcellulose (CMC)): 219 % of control and 330 % of control; T/C (dose: 9.0 mg/kg/injection, schedule: Q02DX010 (ip), vehicle: carboxymethylcellulose (CMC)): 348 % of control; T/C (dose: 10.0 mg/kg/injection, schedule: Q01DX015 (ip), vehicle: carboxymethylcellulose (CMC)): 162 % of control; T/C (dose: 13.0 mg/kg/injection, schedule: Q01DX015 (ip), vehicle: carboxymethylcellulose (CMC)): 293 % of control; T/C (dose: 13.0 mg/kg/injection, schedule: Q02DX010 (ip), vehicle: carboxymethylcellulose (CMC)): 348 % of control; T/C (dose: 20.0 mg/kg/injection, schedule: Q01DX015 (ip), vehicle: carboxymethylcellulose (CMC)): 262 % of control; T/C (dose: 20.0 mg/kg/injection, schedule: Q02DX010 (ip), vehicle: carboxymethylcellulose (CMC)): 308 % of control; T/C (dose: 30.0 mg/kg/injection, schedule: Q01DX015 (ip), vehicle: carboxymethylcellulose (CMC)): 168 % of control and 181 % of control; T/C (dose: 30.0 mg/kg/injection, schedule: Q02DX010 (ip), vehicle: carboxymethylcellulose (CMC)): 310 % of control; T/C (dose: 45.0 mg/kg/injection, schedule: Q01DX015 (ip), vehicle: carboxymethylcellulose (CMC)): 269 % of control; T/C (dose: 45.0 mg/kg/injection, schedule: Q02DX010 (ip), vehicle: carboxymethylcellulose (CMC)): 343 % of control; T/C (dose: 67.0 mg/kg/injection, schedule: Q02DX010 (ip), vehicle: carboxymethylcellulose (CMC)): 348 % of control; T/C (dose: 67.5 mg/kg/injection, schedule: Q01DX015 (ip), vehicle: carboxymethylcellulose (CMC)): 205 % of control; T/C (dose: 80.0 mg/kg/injection, schedule: Q01DX015 (ip), vehicle: carboxymethylcellulose (CMC)): 116 % of control; T/C (dose: 80.0 mg/kg/injection, schedule: Q01DX015 (ip), vehicle: saline): 194 % of control; T/C (dose: 100.0 mg/kg/injection, schedule: Q01DX015 (ip), vehicle: carboxymethylcellulose (CMC)): 121 % of control; T/C (dose: 100.0 mg/kg/injection, schedule: Q01DX015 (ip), vehicle: saline): 233 % of control; T/C (dose: 120.0 mg/kg/injection, schedule: Q01DX015 (ip), vehicle: carboxymethylcellulose (CMC)): 104 % of control; T/C (dose: 120.0 mg/kg/injection, schedule: Q01DX015 (ip), vehicle: saline): 112 % of control; T/C (dose: 75.0 micrograms/kg/injection, schedule: Q01DX015 (ip), vehicle: carboxymethylcellulose (CMC)): 307 % of control; T/C (dose: 150.0 micrograms/kg/injection, schedule: Q01DX015 (ip), vehicle: carboxymethylcellulose (CMC)): 300 % of control; T/C (dose: 310.0 micrograms/kg/injection, schedule: Q01DX015 (ip), vehicle: carboxymethylcellulose (CMC)): 293 % of control; T/C (dose: 620.0 micrograms/kg/injection, schedule: Q01DX015 (ip), vehicle: carboxymethylcellulose (CMC)): 313 % of control

**Q.** How did the T/C (dose: 32.0 mg/kg/injection, schedule: Q## X032 (ip), vehicle: saline) turn out when `CSc1ncnc2c1ncn2C1CC(O)C(CO)O1` (stereo unspecified) was run?
**A.** 105 % of control

**Q.** What about the T/C (dose: 48.0 mg/kg/injection, schedule: Q## X032 (ip), vehicle: saline) of the same compound?
**A.** 96 % of control

**Q.** What about the T/C (dose: 72.0 mg/kg/injection, schedule: Q## X032 (ip), vehicle: saline) of the same compound?
**A.** 107 % of control

**Q.** For `S=c1nc[nH]c2c1ncn2C1CCCCO1` (stereo unspecified), which T/C (dose: 16.0 mg/kg/injection, schedule: Q01DX Z (ip), vehicle: carboxymethylcellulose (CMC)) is on record?
**A.** 104 % of control

**Q.** And the T/C (dose: 31.0 mg/kg/injection, schedule: Q01DX Z (ip), vehicle: carboxymethylcellulose (CMC))?
**A.** 104 % of control

**Q.** And the T/C (dose: 62.0 mg/kg/injection, schedule: Q01DX Z (ip), vehicle: carboxymethylcellulose (CMC))?
**A.** 107 % of control

**Q.** And the T/C (dose: 125.0 mg/kg/injection, schedule: Q01DX Z (ip), vehicle: carboxymethylcellulose (CMC))?
**A.** 96 % of control
